Assay [1] has as its system BaF3. In words: Antiproliferative activity against mouse BaF3 cells assessed as reduction in cell viability incubated for 72 hrs by CCK-8 assay. It counts as functional, cell-based. Conditions: BaF3, 72 h.
Assay [2] deals with HL-60. In words: Antiproliferative activity against human HL-60 cells assessed as reduction in cell viability incubated for 72 hrs by CCK-8 assay. It counts as functional, cell-based. Conditions: HL-60, 72 h.
Assay [3] relates to MV4-11. Kind of assay: Antiproliferative activity against human MV4-11 cells assessed as reduction in cell viability incubated for 72 hrs by CCK-8 assay. It counts as functional, cell-based. Conditions: MV4-11, 72 h.
Assay [4] relates to Ramos. Kind of assay: Antiproliferative activity against human Ramos cells assessed as reduction in cell viability incubated for 72 hrs by CCK-8 assay.
Assay [5] concerns Raji. Kind of assay: Antiproliferative activity against human Raji cells assessed as reduction in cell viability incubated for 72 hrs by CCK-8 assay. It counts as functional, cell-based.
The nature of assay [6]: Antiproliferative activity against human MINO cells assessed as reduction in cell viability incubated for 72 hrs by CCK-8 assay.
Assay [7] concerns EL4. Kind of assay: Antiproliferative activity against mouse EL4 cells assessed as reduction in cell viability incubated for 72 hrs by CCK-8 assay. Conditions: EL4, 72 h. It counts as functional, cell-based.
For assay [8], the system named is L1210. In words: Antiproliferative activity against mouse L1210 cells assessed as reduction in cell viability incubated for 72 hrs by CCK-8 assay. Type of assay: functional, cell-based. Conditions: L1210, 72 h.
Assay [9] relates to Friend leukemia cell line. In words: Antiproliferative activity against mouse Friend leukemia cell line assessed as reduction in cell viability incubated for 72 hrs by CCK-8 assay. It counts as functional, cell-based.
Assay [10] deals with DOHH-2. In words: Antiproliferative activity against human DOHH-2 cells assessed as reduction in cell viability incubated for 72 hrs by CCK-8 assay. Type of assay: functional, cell-based. Conditions: DOHH-2, 72 h.
Assay [11] deals with NB-4. In words: Antiproliferative activity against human NB4 cells assessed as reduction in cell viability incubated for 72 hrs by CCK-8 assay. Conditions: NB-4, 72 h. Type of assay: functional, cell-based.
Assay [12] addresses Histone deacetylase 1 (Homo sapiens, UniProt Q13547).
Description: Inhibition of C-terminal 6His-FLAG-tagged human recombinant HDAC1 (1 to 482 residues) expressed in Sf9 cells using Ac-peptide as substrate preincubated for 15 mins followed by substrate addition and measured after 1 hr by plate reader analysis
Assay [13] concerns the target Phosphatidylinositol 4,5-bisphosphate 3-kinase catalytic subunit alpha isoform (Homo sapiens, UniProt P42336).
Description: Inhibition of PI3Kalpha (unknown origin) using PIP2 as substrate incubated for 1 hr in presence of ATP by ADP-Glo assay

Twelve molecules from ChEMBL document CHEMBL5537133, “Rational design and optimization of novel 4-methyl quinazoline derivatives as PI3K/HDAC dual inhibitors with benzamide as zinc binding moiety for the treatment of acute myeloid leukemia” (Eur J Med Chem, 2024) can be followed below.

Sequence of Phosphatidylinositol 4,5-bisphosphate 3-kinase catalytic subunit alpha isoform (P42336 whole entry, canonical isoform): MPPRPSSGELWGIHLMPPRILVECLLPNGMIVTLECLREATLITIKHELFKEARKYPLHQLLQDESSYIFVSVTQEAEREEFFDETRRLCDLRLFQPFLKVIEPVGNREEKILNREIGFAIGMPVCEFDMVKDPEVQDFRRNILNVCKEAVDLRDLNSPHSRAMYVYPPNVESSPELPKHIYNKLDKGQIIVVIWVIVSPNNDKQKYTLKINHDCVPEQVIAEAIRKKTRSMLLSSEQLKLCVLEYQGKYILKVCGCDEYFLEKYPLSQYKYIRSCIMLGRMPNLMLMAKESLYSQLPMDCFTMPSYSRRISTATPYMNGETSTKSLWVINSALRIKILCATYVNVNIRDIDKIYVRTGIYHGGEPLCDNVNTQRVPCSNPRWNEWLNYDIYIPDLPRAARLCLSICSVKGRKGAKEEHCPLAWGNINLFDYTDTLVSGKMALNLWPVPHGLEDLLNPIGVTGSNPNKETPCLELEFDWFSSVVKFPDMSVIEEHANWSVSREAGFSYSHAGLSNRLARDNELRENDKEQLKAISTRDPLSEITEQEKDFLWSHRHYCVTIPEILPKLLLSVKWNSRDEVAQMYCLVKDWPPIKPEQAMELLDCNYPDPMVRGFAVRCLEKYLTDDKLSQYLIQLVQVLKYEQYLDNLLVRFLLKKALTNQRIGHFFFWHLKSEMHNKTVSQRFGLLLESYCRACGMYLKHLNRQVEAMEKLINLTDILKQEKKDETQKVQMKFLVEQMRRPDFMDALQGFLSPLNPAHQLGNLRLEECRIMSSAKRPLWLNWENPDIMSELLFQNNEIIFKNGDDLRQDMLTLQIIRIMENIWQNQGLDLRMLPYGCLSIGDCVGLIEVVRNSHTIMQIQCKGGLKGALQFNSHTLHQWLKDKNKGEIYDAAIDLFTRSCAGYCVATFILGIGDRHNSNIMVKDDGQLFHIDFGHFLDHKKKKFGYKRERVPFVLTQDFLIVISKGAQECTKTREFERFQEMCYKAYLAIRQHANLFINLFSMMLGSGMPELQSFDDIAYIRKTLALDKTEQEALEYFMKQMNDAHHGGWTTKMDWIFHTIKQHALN
Sequence of Histone deacetylase 1 (Q13547 whole entry, canonical isoform): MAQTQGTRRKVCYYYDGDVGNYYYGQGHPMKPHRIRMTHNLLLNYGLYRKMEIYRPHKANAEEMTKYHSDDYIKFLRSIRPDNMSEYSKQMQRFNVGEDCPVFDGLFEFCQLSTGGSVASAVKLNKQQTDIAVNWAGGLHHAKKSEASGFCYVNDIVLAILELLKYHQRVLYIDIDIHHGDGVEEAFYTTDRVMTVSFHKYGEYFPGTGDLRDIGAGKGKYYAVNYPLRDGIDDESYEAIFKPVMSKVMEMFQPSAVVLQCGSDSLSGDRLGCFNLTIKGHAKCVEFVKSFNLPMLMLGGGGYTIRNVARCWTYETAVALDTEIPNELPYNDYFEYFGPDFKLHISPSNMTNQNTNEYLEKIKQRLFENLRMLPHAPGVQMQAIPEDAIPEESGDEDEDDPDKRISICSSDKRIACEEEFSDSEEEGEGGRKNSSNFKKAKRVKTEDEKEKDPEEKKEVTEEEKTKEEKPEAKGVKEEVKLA

Turning to `Nc1ccc(F)cc1NC(=O)c1ccc(CNC(=O)/C=C/c2cccnc2)cc1`, the IC50 was 1500 nM in assay [1]; 1300 nM in assay [2]; 320 nM in assay [3]; > 10000 nM in assay [4]; 6900 nM in assay [5]; 2100 nM in assay [6]. Further, the IC50 is 5200 nM in [7]; > 10000 nM in [8]; 500 nM in assay [9]; 4300 nM in assay [10]; 1900 nM in assay [11].

Turning to `COc1ncc(-c2cc(OCCCCCCC(=O)NO)c3ncnc(C)c3c2)cc1F`, in assay [3], the half-maximal inhibitory concentration (IC50) is 250 nM.

As to `COc1ncc(-c2cc(OCCCCCCCCCC(=O)Nc3ccccc3N)c3ncnc(C)c3c2)cc1NS(=O)(=O)c1ccc(F)cc1F`, the IC50 came to 60 nM in assay [3], 3030 nM in assay [12] and 0.4 nM in assay [13].

Regarding `COc1ncc(-c2cc(OCCCCCCCCC(=O)Nc3ccccc3N)c3ncnc(C)c3c2)cc1NS(=O)(=O)c1ccc(F)cc1F`, the results for the IC50 in [3], in assay [12] and in assay [13] were 10 nM, 253 nM and 0.39 nM, respectively.

Regarding `COc1ncc(-c2cc(OCCCC(=O)Nc3ccccc3N)c3ncnc(C)c3c2)cc1NS(=O)(=O)c1ccc(F)cc1F`, the values for the IC50 in assay [3], in assay [12] and in assay [13] were 30 nM, 4710 nM and 0.23 nM, respectively.

In the case of `COc1ncc(-c2cc(OCCCCC(=O)Nc3ccccc3N)c3ncnc(C)c3c2)cc1NS(=O)(=O)c1ccc(F)cc1F`, the figures for the concentration for half-maximal inhibition (IC50) in assay [3], in assay [12] and in assay [13] were 20 nM, 3560 nM and 0.2 nM, respectively.

For `COc1ncc(-c2cc(OCCCCCC(=O)Nc3ccccc3N)c3ncnc(C)c3c2)cc1NS(=O)(=O)c1ccc(F)cc1F`, the figures for the IC50 in assay [3], in assay [12] and in assay [13] were 10 nM, 1310 nM and 0.21 nM, respectively.

As to `COc1ncc(-c2cc(OCCOc3ccc(C(=O)Nc4ccccc4N)cc3)c3ncnc(C)c3c2)cc1NS(=O)(=O)c1ccc(F)cc1F`, the IC50 came out at 410 nM in [3], 56 nM in assay [12] and 0.58 nM in assay [13].

Consider `COc1ncc(-c2cc(OCCCOc3ccc(C(=O)Nc4ccccc4N)cc3)c3ncnc(C)c3c2)cc1NS(=O)(=O)c1ccc(F)cc1F`, for which the IC50 in assay [3] is 390 nM; in assay [12], 95 nM; in [13], 0.39 nM.

In the case of `COc1ncc(-c2cc(OCCCCCCCC(=O)Nc3ccccc3N)c3ncnc(C)c3c2)cc1NS(=O)(=O)c1ccc(F)cc1F`, the IC50 was found to be 20 nM in assay [3], 525 nM in [12] and 0.28 nM in assay [13].

In the case of `Nc1cc(C(F)(F)F)c(-c2cc(N3CCOCC3)nc(N3CCOCC3)n2)cn1` [BUPARLISIB], the IC50 is 4800 nM in [1]; 1200 nM in assay [2]; 560 nM in assay [3]; 5400 nM in assay [4]; 990 nM in assay [5]; 1500 nM in [6]. Also, the IC50 in assay [7] came to 860 nM; in assay [8], 370 nM; in assay [9], 810 nM; in assay [10], 1400 nM; in assay [11], 750 nM.

As to `O=C(CCCCCCC(=O)Nc1ccccc1)NO` [VORINOSTAT], in [1], the IC50 stood at 800 nM.
